Measured values taken from the NIST ThermoML archive (doi:10.1021/acs.jced.8b00403).

Legend:
[1] = refractive index (Na D-line) (dimensionless); details: 101.33 kPa, Liquid, Standard Abbe refractometry
[2] = 101.33 kPa, Liquid; for viscosity: Concentric cylinders viscometry; for mass density: Vibrating tube method
[3] = wn = mass fraction of the nth substance listed; details: 101.33 kPa, Liquid, w2 = 0; for viscosity: Concentric cylinders viscometry; for mass density: Vibrating tube method
[4] = refractive index (Na D-line) (dimensionless); wn = mass fraction of the nth substance listed; details: 101.33 kPa, Liquid, Standard Abbe refractometry, w2 = 0

CC(O)CO (stereo unspecified) [1,2-propanediol]
Details | mass density, [2] [kg/m3] | refractive index, [1] | viscosity, [2] [mPa·s]
253.15 K | 1065.8 | – | 1772.4
258.15 K | 1062.2 | – | 1038.3
263.15 K | 1058.6 | – | 631.08
268.15 K | 1054.9 | – | 396.99
273.15 K | 1051.3 | – | 258
278.15 K | – | 1.438 | –
283.15 K | 1042.9 | 1.4364 | 116.68
288.15 K | – | 1.4348 | –
293.15 K | 1035.5 | 1.4332 | 59.75
298.15 K | – | 1.4315 | –
303.15 K | 1028.1 | 1.4299 | 33.26
308.15 K | – | 1.4281 | –
313.15 K | 1020.6 | 1.4264 | 19.92
318.15 K | – | 1.4247 | –
323.15 K | 1013 | – | 12.68
333.15 K | 1005.3 | – | 8.498
343.15 K | 997.7 | – | 5.95
353.15 K | 989.5 | – | 4.332

OCCCO [propan-1,3-diol]
Details | mass density, [2] [kg/m3] | refractive index, [1] | viscosity, [2] [mPa·s]
253.15 K | 1078.2 | – | 574.39
258.15 K | 1075.4 | – | 409.88
263.15 K | 1072.3 | – | 289.5
268.15 K | 1069 | – | 207.88
273.15 K | 1065.9 | – | 152.75
278.15 K | – | 1.4436 | –
283.15 K | 1059.8 | 1.4423 | 86.48
288.15 K | – | 1.4409 | –
293.15 K | 1053.6 | 1.4395 | 52.01
298.15 K | – | 1.4381 | –
303.15 K | 1047.4 | 1.4368 | 32.92
308.15 K | – | 1.4354 | –
313.15 K | 1041.1 | 1.434 | 21.79
318.15 K | – | 1.4325 | –
323.15 K | 1034.8 | – | 15
333.15 K | 1028.4 | – | 10.72
343.15 K | 1021.9 | – | 7.855
353.15 K | 1015.3 | – | 5.916

O [water]
Details | mass density, [2] [kg/m3] | refractive index, [1] | viscosity, [2] [mPa·s]
273.15 K | 1000.8 | – | 1.825
278.15 K | – | 1.3341 | –
283.15 K | 1000.6 | 1.3338 | 1.345
288.15 K | – | 1.3335 | –
293.15 K | 999.3 | 1.3331 | 1.041
298.15 K | – | 1.3326 | –
303.15 K | 996.8 | 1.332 | 0.8467
308.15 K | – | 1.3313 | –
313.15 K | 993.2 | 1.3306 | 0.6997
318.15 K | – | 1.3298 | –
323.15 K | 989 | – | 0.5967
333.15 K | 984.4 | – | 0.5091
343.15 K | 978.6 | – | 0.4355
353.15 K | 972.7 | – | 0.3911

O [water] + CC(O)CO
Details | mass density, [3] [kg/m3] | refractive index, [4] | viscosity, [3] [mPa·s]
273.15 K | 1000.8 | – | 1.825
278.15 K | – | 1.3341 | –
283.15 K | 1000.6 | 1.3338 | 1.345
288.15 K | – | 1.3335 | –
293.15 K | 999.3 | 1.3331 | 1.041
298.15 K | – | 1.3326 | –
303.15 K | 996.8 | 1.332 | 0.8467
308.15 K | – | 1.3313 | –
313.15 K | 993.2 | 1.3306 | 0.6997
318.15 K | – | 1.3298 | –
323.15 K | 989 | – | 0.5967
333.15 K | 984.4 | – | 0.5091
343.15 K | 978.6 | – | 0.4355
353.15 K | 972.7 | – | 0.3911

O [water] + OCCCO
Details | mass density, [3] [kg/m3] | refractive index, [4] | viscosity, [3] [mPa·s]
273.15 K | 1000.8 | – | 1.825
278.15 K | – | 1.3341 | –
283.15 K | 1000.6 | 1.3338 | 1.345
288.15 K | – | 1.3335 | –
293.15 K | 999.3 | 1.3331 | 1.041
298.15 K | – | 1.3326 | –
303.15 K | 996.8 | 1.332 | 0.8467
308.15 K | – | 1.3313 | –
313.15 K | 993.2 | 1.3306 | 0.6997
318.15 K | – | 1.3298 | –
323.15 K | 989 | – | 0.5967
333.15 K | 984.4 | – | 0.5091
343.15 K | 978.6 | – | 0.4355
353.15 K | 972.7 | – | 0.3911
